Experiments:
[1] = Dispersion in water / turbidity of drug with and without NDs; type: physicochemical; conditions: DMSO mixtures diluted 20 fold in water to 5% DMSO; 0.1 mg/ml Purvalanol A, 1 mg/ml ND
[2] = Particle size and zeta potential measurement (DLS) of ND-drug complexes; type: physicochemical; conditions: for average particle size upon complexing with NDs: ND 1 mg/mL, therapeutic 0.1 mg/mL
Procedure: The particle size and zeta potential of the complexes were measured using a Zetasizer Nano (Malvern Instruments). […] ND:Purvalanol A complexes were prepared in a similar manner in 5% aqueous DMSO as described previously. […] All size measurements were performed at 25° C. at a 90° scattering angle. Mean hydrodynamic diameters were obtained via cumulative analysis of 11 measurements.

[3] = tested on: HepG2 tissue culture cells; assay: DNA fragmentation (laddering) assay; type: cell-based; conditions: 24 hours, 10:1 ND:Purvalanol A in 5% DMSO in water, 1:10 dilution
Procedure: A 1:10 dilution of 5% DMSO in water, NDs in 5% DMSO in water (1 mg/ml), ND:Purvalanol A in 5% DMSO in water (10:1 ratio—1 mg/ml ND, 0.1 mg/ml Purvalanol A), and Purvalanol A in 5% DMSO in water (0.1 mg/ml) were added to HepG2 tissue culture cells and grown for 24 hours. The cultured cells were lysed in 500 μL lysis buffer (10 mM Tris-HCl, pH 8.0, 10 mM EDTA, 1% Triton X-100). 30-minute incubations at 37° C. followed separate RNase A and proteinase K treatment. Following phenol chloroform extraction, nuclear DNA was isolated in isopropyl alcohol and stored at −80° C. overnight. The samples were then resuspended in DEPC water following a 70% ethanol wash and electrophoresed using a 0.8% agarose gel, and finally stained with ethidium bromide.

[4] = 5-day insulin desorption test; type: physicochemical; conditions: for cumulative insulin released from NDs by day 1: of total adsorbed insulin, 4:1 ratio
Procedure: Additionally, a 5-day desorption test was conducted to determine cumulative insulin release. Samples were prepared by combining NDs and insulin (4:1 ratio), centrifuging at 14,000 rpm for 2 hours and extracting the remaining solution to remove any non-adsorbed insulin. Subsequently, a 1 mM NaOH solution adjusted to pH 10.5 was added to the samples, mixed thoroughly and centrifuged after a 24-hour period to determine protein concentration utilizing a BCA assay. In addition to alkaline-mediated release, water was added to a separate set of samples. The samples were replenished with NaOH or water after each measurement for the respective conditions, and the process was repeated every 24 hours over the course of 5 days.

[5] = tested on: Granulocyte colony-stimulating factor (Csf3/G-csf); assay: Quantitative RT-PCR gene expression, Csf3/G-csf; type: cell-based, murine; conditions: 3T3-L1 adipocytes; (2) 0.1 μM insulin
Procedure: (§1) RT-PCR procedures were conducted as described previously. 3T3-L1 adipocytes were plated in 6-well plates, serum-starved for 4 hours and then recovered in media solutions of DMEM, insulin, approximately 0.1 μM insulin released from ND-insulin by NaOH (pH 10.5), resultant solution from centrifuged ND-insulin in pH-neutral water, ND-insulin treated with NaOH (1 μM total insulin) and NDs with bound insulin (ND-insulin, 1 μM total insulin). Preparations of media solutions containing DMEM, insulin, NDs and NaOH were conducted in a similar fashion to those implemented for the MTT assay. RNA isolation was completed by lysing cells with TRIzol reagent (Invitrogen Corporation, Carlsbad, Calif.) and added to chloroform to obtain genetic material by centrifugation. cDNA synthesis was performed using the iScript Select cDNA Synthesis Kit (Bio-Rad, Hercules, Calif.). PCR expression of the Ins1 and Csf3/G-csf genes (Integrated DNA Technologies, Coralville, Iowa) were quantified by the MyiQ Single Color Real-Time PCR machine (Bio-Rad, Hercules, Calif.) using SYBER Green detection reagents (Quanta Biosciences, Gaithersburg, Md.). The Rpl32 gene (Integrated DNA Technologies) served as the housekeeping gene for normalization of cDNA among samples.

[6] = reference [38]; cited from earlier work
[7] = Insulin desorption from NDs in NaOH of varying pH; type: physicochemical; conditions: 4:1 ratio; NaOH at pH 10.5
Procedure: Determination of insulin adsorption to NDs was performed by protein detection assays before and after centrifugation. Insulin was added to a ND suspension, centrifuged at 14,000 rpm for 2 hours and the resultant solution extracted and quantified. Detection of desorbed insulin was performed by adding alkaline solutions of 1 mM NaOH, adjusted for varying pH, to samples of ND-insulin in suspension. Binding ratios were determined similar to the adsorption test.
The desorption assays were conducted in a similar manner as the adsorption assays. Aqueous solutions of FITC-labeled and standard insulin were added to ND suspensions at 5:1 and 4:1 ratios, respectively. Initial and centrifuged samples were measured, and the amount of insulin desorbed was calculated. […] Separate tests at pH 10.7 show the ND-insulin complex achieving 53.3±1.2% desorption.

Insulin 1 (Ins1) = assay: Quantitative RT-PCR gene expression, Ins1; type: cell-based, murine; conditions: 3T3-L1 adipocytes; serum-starved 4 hours, 2-hour recovery; (2) 0.1 μM insulin
Procedure: as §1

[8] = DLS analysis of NDs, insulin and ND-insulin (size, PDI, zeta potential); type: physicochemical; conditions: for Average Size (μm): DLS hydrodynamic cluster size
Procedure: Hydrodynamic size and zeta potential of samples was measured with a Zetasizer Nano (Malvern Instruments, Worcestershire, United Kingdom). NDs and insulin were prepared as previously described. Briefly, the particles were suspended in buffer with corresponding pH at a concentration of 50 mg/mL. The size measurements were performed at 25° C. and at a 173° scattering angle. The mean hydrodynamic diameter was determined by cumulative analysis. The zeta potential determinations were based on electrophoretic mobility of the microparticles in the aqueous medium, which was performed using folded capillary cells in automatic mode.

[9] = tested on: RAW 264.7 macrophage cells; assay: MTT cell viability assay after serum starvation; type: cell-based, murine; conditions: serum-starved 8 hours, 24-hour recovery, 0.1 μM versus 1 μM insulin
Procedure: RAW 264.7 murine macrophages were plated in 96-well plates, serum-starved for 8 hours and then incubated for 24 hours. Post-starvation media was composed of the following conditions: DMEM, 0.1 μM insulin, 1 μM insulin, DMEM 10% FBS, approximately 0.1 μM insulin released from ND-insulin complex by NaOH at pH 10.5 (insulin present in media), resultant solution from centrifuged ND-insulin in water, ND-insulin treated with NaOH at pH 10.5 (1 μM total insulin, ND-insulin complex present in media) and ND-insulin (1 μM total insulin, ND-insulin complex present in media). Insulin released from NDs was prepared by centrifuging samples of NDs with adsorbed insulin in NaOH and extracting the resultant solution, which could be reconstituted with media to 0.1 μM insulin. In a similar fashion, water was utilized as a neutral solution for relevant desorption analysis. Methylthiazolyldiphenyl-tetrazolium bromide (MTT) solution (Sigma-Aldrich) was added corresponding to 10% of total volume, and then incubated for 3 hours. After formazan crystal formation, the media was removed and MTT solvent, 0.1N HCl in anhydrous isopropanol (Sigma-Aldrich), was added to samples to solubilize the MTT dye. Sample absorbance measurements occurred at 570 nm, accounting for background at a wavelength of 690 nm.

[10] = Nanodiamond-drug binding assays (UV-vis spectrophotometry, centrifugation); type: physicochemical; conditions: UV-vis spectrophotometry and centrifugation (14000 rpm) pelleting
Procedure: The binding efficiency of therapeutics such as daunorubicin, idarubicin, and others were analyzed using UV-vis spectrophotometry, as well as centrifugation assays (SEE FIGS. 18-39). In all cases, nanodiamond-drug interactions were capable of comprehensively pelleting the therapeutics (SEE FIGS. 19, 22, 25, 28, 30, 33, 36, and 39), indicating potent adsorption which was further confirmed via spectrophotometric analysis […], […], 1-32, 34-35, and 37-38).

[11] = Desorption of drug from Nanodiamond conjugates in water and PBS; type: physicochemical
[12] = ND pulldown with UV-Vis spectrophotometric analysis of drug adsorption; type: physicochemical; conditions: 14,000 rpm, 2 hours, 25° C.
Procedure: All samples underwent centrifugation at 14,000 rpm for 2 hours at 25° C., where the supernatant was then subsequently collected for spectroscopic scans from 200 nm to 600 nm. Drug loading concentrations were determined via ND-complex pull-down experiments which comprised of an initial absorbance reading, then a 2 hour centrifuge of all samples at 25° C. and 14000 RPM followed by a final absorbance reading. The concentration of loaded drug was then calculated by measuring the difference between the initial and final readings.

In the case of CC(C)[C@H](CO)Nc1nc(Nc2cccc(Cl)c2)c2ncn(C(C)C)c2n1 [Purvalanol A], the “turbidity after dilution in water” value [1] is reported as “precipitated out of solution, producing a turbid liquid”, the “average particle size upon complexing with NDs” value [2] is reported as 556 nm and the DNA fragmentation [3] is reported as “Fragmentation was evident”.

With insulin: bovine insulin (Sigma-Aldrich) the “amount of insulin released with NaOH relative to water” value ([4]; 5 days) was “more than 20 times”, the “total insulin eluted from NDs by day 5” value ([4]; NaOH (pH 10.5)) was 45.8±3.8 wt % and the “cumulative insulin released from NDs by day 1” value ([4]; NaOH (pH 10.5)) was 32.7±1.9 wt %. The “total insulin eluted from NDs by day 5” value ([4]; water) was 2.2±1.2 wt %, the “cumulative insulin released from NDs by day 1” value ([4]; water) was 0.2±0.1 wt % and the “relative expression of Csf3/G-csf” value [5] was “comparably higher than that of Ins1”. For the same compound, the isoelectric point [6] was “approximately 5.6”, the “desorption (release) of standard insulin from NDs” value [7] was 31.3±1.6% and the “relative expression of Ins1” value (Insulin 1 (Ins1)) was “lowest expression of Ins1”. For the same compound, the “zeta potential at pH 10.5 compared with pH 7” value [8] was “substantially more negative”, the zeta potential ([8]; at both pH 7 and 10.5) was “negative values” and the PDI ([8]; pH 7) was 0.97 ± 0.046. For the same compound, the “Average Size (μm)” value ([8]; pH 7) was 1.59 ± 0.038 μm, the PDI ([8]; pH 10.5) was 0.99 ± 0.011 and the “Average Size (μm)” value ([8]; pH 10.5) was 2.28 ± 0.66 μm. The relative viability [9] was “increased viability at higher insulin concentrations”.

In the case of COc1cccc2c1C(=O)c1c(O)c3c(c(O)c1C2=O)C[C@@](O)(C(C)=O)C[C@@H]3O[C@H]1C[C@H](N)[C@H](O)[C@H](C)O1 [DAUN, daunorubicin], the “binding / adsorption between ND surface and therapeutic” value [10] is reported as “exceptional binding” and the “release profile of drug desorbed from Nanodiamond conjugates” value (“release profile of drug desorbed” for short) [11] is reported as “drug elution is sustained over several hours”.

In the case of CC(=O)[C@]1(O)Cc2c(O)c3c(c(O)c2[C@@H](O[C@H]2C[C@H](N)[C@H](O)[C@H](C)O2)C1)C(=O)c1ccccc1C3=O [IDA, idarubicin], the “binding / adsorption between ND surface and therapeutic” value [10] is reported as “exceptional binding” and the “release profile of drug desorbed” value [11] is reported as “drug elution is sustained over several hours”.

For COc1cccc2c1C(=O)c1c(O)c3c(c(O)c1C2=O)C[C@@](O)(C(=O)CO)C[C@@H]3O[C@H]1C[C@H](N)[C@@H](O)[C@H](C)O1 [EPI, epirubicin], the “binding / adsorption between ND surface and therapeutic” value [10] was “exceptional binding” and the “release profile of drug desorbed” value [11] was “drug elution is sustained over several hours”.

In the case of 4-hydroxytamoxifen [4-OHT], the “average particle size upon complexing with NDs” value [2] is reported as 278.9 nm, the “mean diameter (particle size)” value ([2]; in 5% DMSO, not complexed) is reported as 485.1 nm and the “UV-Vis absorbance of supernatant before and after centrifugation (pulldown)” value [12] is reported as “insignificant change in the UV-Vis absorbance”.

From patent US10799593B2, “Nanodiamond particle complexes” (priority 2008, dated 2020)
